# Molecular target: Histone acetyltransferase KAT6A (UniProt Q92794)
# Assay: KAT6A Biochemical Assay
# From the text: TR-FRET is homogeneous proximity assay where Europium-labelled anti-acetyl lysine antibody binds to the acetylated substrate labelled with biotin which in turn binds to streptavidin labelled APC fluorescence acceptor. Europium can transfer energy to APC in the complex and the interaction of two dye-labelled binding partners is detected by the energy transfer between a donor and an acceptor dye, and the subsequent light emission by the acceptor dye. KAT6A transfer an acetyl group from acetyl CoA to lysine amino acids of histones/target proteins. Typically, 5 μL of human-KAT6A (MYST domain 507-778 aa) in assay buffer (100 mM Tris HCl (pH 7.8), 15 mM NaCl, 1 mM EDTA, 0.01% Tween-20, 0.02% BSA, 1 mM DTT) is added to 384-well plate containing 5 μL of selected test compound in final 1% DMSO, serially diluted in 1:3 in an 8-10-point titration. The selected compound of the present invention and enzyme are incubated for 30 min at room temperature. Next, 5 μL of substrate mix containing histone H4 peptide and acetyl-CoA in assay buffer is added to the plate. The final concentrations of H4 peptide and acetyl-CoA are 200 nM and 600 nM respectively. […] The plate is further incubated for 45 min at room temperature and is read in TR-FRET mode (Ex:340 nm; Em: 615 nm and 665 nm) on a plate reader.
# Chain of Histone acetyltransferase KAT6A (Q92794 whole entry): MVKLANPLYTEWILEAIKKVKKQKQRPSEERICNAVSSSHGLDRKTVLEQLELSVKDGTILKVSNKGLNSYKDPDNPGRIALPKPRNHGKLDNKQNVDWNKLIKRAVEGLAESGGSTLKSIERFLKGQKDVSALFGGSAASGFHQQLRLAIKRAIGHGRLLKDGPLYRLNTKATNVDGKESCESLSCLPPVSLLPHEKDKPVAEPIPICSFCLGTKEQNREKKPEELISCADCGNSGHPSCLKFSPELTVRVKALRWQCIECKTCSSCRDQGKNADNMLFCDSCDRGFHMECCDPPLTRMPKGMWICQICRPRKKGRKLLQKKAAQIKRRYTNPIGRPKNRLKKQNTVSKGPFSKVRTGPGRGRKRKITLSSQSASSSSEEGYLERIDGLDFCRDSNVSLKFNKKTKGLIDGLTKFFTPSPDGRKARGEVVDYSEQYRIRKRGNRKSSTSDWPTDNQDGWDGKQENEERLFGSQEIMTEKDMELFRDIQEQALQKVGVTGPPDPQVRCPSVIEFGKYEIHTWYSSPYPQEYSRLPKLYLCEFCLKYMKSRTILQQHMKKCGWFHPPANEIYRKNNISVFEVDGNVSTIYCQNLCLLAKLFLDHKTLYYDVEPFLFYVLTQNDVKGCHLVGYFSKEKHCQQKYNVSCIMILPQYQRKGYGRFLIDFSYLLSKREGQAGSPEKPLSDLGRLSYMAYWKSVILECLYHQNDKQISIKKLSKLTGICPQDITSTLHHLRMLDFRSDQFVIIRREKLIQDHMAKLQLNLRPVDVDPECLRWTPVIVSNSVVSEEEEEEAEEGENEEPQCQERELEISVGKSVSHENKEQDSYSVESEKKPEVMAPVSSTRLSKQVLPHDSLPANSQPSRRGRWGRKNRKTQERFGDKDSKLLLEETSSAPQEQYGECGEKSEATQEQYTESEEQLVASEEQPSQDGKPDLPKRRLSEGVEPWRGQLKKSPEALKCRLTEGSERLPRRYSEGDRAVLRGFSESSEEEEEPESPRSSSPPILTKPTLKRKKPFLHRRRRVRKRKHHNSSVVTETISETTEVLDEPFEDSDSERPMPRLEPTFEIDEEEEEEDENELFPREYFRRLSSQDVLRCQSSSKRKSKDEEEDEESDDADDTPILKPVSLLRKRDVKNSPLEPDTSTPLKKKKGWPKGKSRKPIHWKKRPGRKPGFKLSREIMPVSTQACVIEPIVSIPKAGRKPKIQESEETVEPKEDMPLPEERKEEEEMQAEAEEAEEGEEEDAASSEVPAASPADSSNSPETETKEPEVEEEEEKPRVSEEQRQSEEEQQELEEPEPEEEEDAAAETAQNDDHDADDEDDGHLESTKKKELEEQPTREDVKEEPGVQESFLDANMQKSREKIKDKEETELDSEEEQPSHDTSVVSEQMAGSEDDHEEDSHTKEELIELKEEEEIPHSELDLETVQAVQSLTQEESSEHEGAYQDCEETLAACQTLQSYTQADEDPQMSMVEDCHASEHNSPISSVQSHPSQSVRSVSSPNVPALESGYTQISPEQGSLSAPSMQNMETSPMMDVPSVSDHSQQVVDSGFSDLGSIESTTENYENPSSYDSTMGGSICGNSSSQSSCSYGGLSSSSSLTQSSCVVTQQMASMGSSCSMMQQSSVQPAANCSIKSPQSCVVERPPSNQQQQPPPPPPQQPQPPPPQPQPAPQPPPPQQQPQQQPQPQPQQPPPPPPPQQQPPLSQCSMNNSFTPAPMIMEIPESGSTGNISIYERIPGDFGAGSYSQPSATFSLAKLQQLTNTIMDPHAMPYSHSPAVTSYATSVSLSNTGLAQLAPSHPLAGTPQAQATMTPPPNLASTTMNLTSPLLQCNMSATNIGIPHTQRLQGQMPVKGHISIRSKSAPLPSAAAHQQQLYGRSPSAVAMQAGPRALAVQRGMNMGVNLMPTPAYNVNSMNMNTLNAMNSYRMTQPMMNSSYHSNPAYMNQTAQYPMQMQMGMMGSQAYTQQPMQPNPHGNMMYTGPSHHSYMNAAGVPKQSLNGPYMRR
row,IC50 [nM],Compound
1,156,"COc1cccc(OC)c1S(=O)(=O)Nc1noc2cc(-c3cscc3C)c3c(c12)OCC3 [US20250059204, Compound 14]"
2,43,"COc1cccc(OC)c1S(=O)(=O)Nc1noc2cc(Cn3cccn3)c3c(c12)OC(C)(C)C3 [US20250059204, Compound 56]"
